From US11345681B1, “Inhibitors of fibroblast growth factor receptor kinases” (Kinnate Biopharma Inc., priority 2020, dated 2022)

Target: Wild type FGFR2 (Homo sapiens (Human), UniProt P21802)
Assay: FGFR2 kinase assay (fluorescence-based microfluidic mobility shift assay)
Assay type: biochemical
Conditions: wild type FGFR2 0.06 nM, 100 μM ATP, 80 minutes at room temperature

Sequence of Wild type FGFR2 (P21802 22-821): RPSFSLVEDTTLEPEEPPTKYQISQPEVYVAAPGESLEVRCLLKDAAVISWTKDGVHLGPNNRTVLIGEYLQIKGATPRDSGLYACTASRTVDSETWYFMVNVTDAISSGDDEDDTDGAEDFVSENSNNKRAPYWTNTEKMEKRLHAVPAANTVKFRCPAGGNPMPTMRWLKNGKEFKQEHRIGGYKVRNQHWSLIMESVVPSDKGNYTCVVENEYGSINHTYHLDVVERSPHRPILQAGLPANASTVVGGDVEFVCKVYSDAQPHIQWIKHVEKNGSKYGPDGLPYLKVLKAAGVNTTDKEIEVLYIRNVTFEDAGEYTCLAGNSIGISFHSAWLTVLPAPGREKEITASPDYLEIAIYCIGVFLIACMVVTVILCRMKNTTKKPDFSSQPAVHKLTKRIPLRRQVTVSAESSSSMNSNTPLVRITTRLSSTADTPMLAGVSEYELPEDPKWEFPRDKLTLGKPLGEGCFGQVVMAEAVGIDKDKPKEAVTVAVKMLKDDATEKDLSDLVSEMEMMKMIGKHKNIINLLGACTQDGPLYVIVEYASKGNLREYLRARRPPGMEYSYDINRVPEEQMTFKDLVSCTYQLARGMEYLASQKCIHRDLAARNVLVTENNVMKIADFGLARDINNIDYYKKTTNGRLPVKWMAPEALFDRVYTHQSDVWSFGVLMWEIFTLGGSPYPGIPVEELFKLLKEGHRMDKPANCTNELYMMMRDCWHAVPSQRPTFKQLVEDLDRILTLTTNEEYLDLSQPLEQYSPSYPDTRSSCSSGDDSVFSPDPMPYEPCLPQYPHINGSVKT

Row | SMILES | IC50 (class symbols) | IC50 (given as numeric bound)
1 | C=CC(=O)N1C[C@@H](n2nc(C#Cc3c(F)cc4c(ncn4CC)c3F)c(C(N)=O)c2NC)C[C@@H]1COC [Example 29, 1-((3S,5R)-1-acryloyl-5-(methoxymethyl)pyrrolidin-3-yl)-3-((1-ethyl-4,6-difluoro-1H-benzo[d]imidazol-5-yl)ethynyl)-5-(methylamino)-1H-pyrazole-4-carboxamide] | ≤ 100 nM | 
2 | C=CC(=O)N1C[C@@H](n2nc(C#Cc3c(F)cc4c(ncn4C(F)F)c3F)c(C(N)=O)c2NC)C[C@@H]1COC [Example 30, 1-((3S,5R)-1-acryloyl-5-(methoxymethyl)pyrrolidin-3-yl)-3-((1-(difluoromethyl)-4,6-difluoro-1H-benzo[d]imidazol-5-yl)ethynyl)-5-(methylamino)-1H-pyrazole-4-carboxamide] | ≤ 100 nM | 
3 | C=CC(=O)N1C[C@@H](n2nc(C#Cc3cc4ncn(CC)c4cc3F)c(C(N)=O)c2NC)C[C@@H]1COC [Example 32, 1-((3S,5R)-1-acryloyl-5-(methoxymethyl)pyrrolidin-3-yl)-3-((1-ethyl-6-fluoro-1H-benzo[d]imidazol-5-yl)ethynyl)-5-(methylamino)-1H-pyrazole-4-carboxamide] | ≤ 100 nM | 
4 | C=CC(=O)N1C[C@@H](n2nc(C#Cc3cc4nc(C)n(CC)c4cc3Cl)c(C(N)=O)c2NC)C[C@@H]1COC [Example 33, 1-((3S,5R)-1-acryloyl-5-(methoxymethyl)pyrrolidin-3-yl)-3-((6-chloro-1-ethyl-2-methyl-1H-benzo[d]imidazol-5-yl)ethynyl)-5-(methylamino)-1H-pyrazole-4-carboxamide] | ≤ 100 nM | 
5 | C=CC(=O)N1C[C@@H](n2nc(C#Cc3c(F)cc4c(nc(C)n4CC(F)(F)F)c3F)c(C(N)=O)c2NC)C[C@@H]1COC [Example 35, 1-((3S,5R)-1-acryloyl-5-(methoxymethyl)pyrrolidin-3-yl)-3-((4,6-difluoro-2-methyl-1-(2,2,2-trifluoroethyl)-1H-benzo[d]imidazol-5-yl)ethynyl)-5-(methylamino)-1H-pyrazole-4-carboxamide] | ≤ 100 nM | 
6 | C=CC(=O)N1C[C@@H](n2nc(C#Cc3ccc4ncn(CC)c4c3F)c(C(N)=O)c2NC)C[C@@H]1COC [Example 36, 3-[2-(3-ethyl-4-fluoro-1,3-benzodiazol-5-yl)ethynyl]-1-[(3S,5R)-5-(methoxymethyl)-1-(prop-2-enoyl)pyrrolidin-3-yl]-5-(methylamino)pyrazole-4-carboxamide] | 100 to 1000 nM | 
7 | C=CC(=O)N1C[C@@H](n2nc(C#Cc3cc4ncn(C)c4cc3F)c(C(N)=O)c2NC)C[C@@H]1COC [Example 40, 3-[2-(6-fluoro-1-methyl-1,3-benzodiazol-5-yl)ethynyl]-1-[(3S,5)-5-(methoxymethyl)-1-(prop-2-enoyl)pyrrolidin-3-yl]-5-(methylamino)pyrazole-4-carboxamide] | ≤ 100 nM | 
8 | C=CC(=O)N1C[C@@H](n2nc(C#Cc3ccc4ncn(C)c4c3F)c(C(N)=O)c2NC)C[C@@H]1COC [Example 41, 3-[2-(4-fluoro-^-1-methyl-1,3-benzodiazol-5-yl)ethynyl]-1-[(3S,5R)-5-(methoxymethyl)-1-(prop-2-enoyl)pyrrolidin-3-yl]-(methylamino)pyrazole-4-carboxamide] | 100 to 1000 nM | 
9 | C=CC(=O)N1C[C@@H](n2nc(C#Cc3ccc4c(c3)nc(C3CC3)n4C)c(C(N)=O)c2NC)C[C@@H]1COC [Example 43, 3-[2-(2-cyclopropyl-1-methyl-1,3-benzodiazol-5-yl)ethynyl]-1-[(3S,5R)-5-(methoxymethyl)-1-(prop-2-enoyl)pyrrolidin-3-yl]-5-(methylamino)pyrazole-4-carboxamide] | ≤ 100 nM | 
10 | C=CC(=O)N1C[C@@H](n2nc(C#Cc3c(F)cc4[nH]c(C(F)(F)F)nc4c3F)c(C(N)=O)c2NC)C[C@@H]1COC [Example 46] | ≤ 100 nM | 
11 | C=CC(=O)N1C[C@@H](n2nc(C#Cc3cc4nc(C)n(CC)c4cn3)c(C(N)=O)c2NC)C[C@@H]1COC [Example 48, 3-(2-[3-Ethyl-2-methylimidazo[4,5-c]pyridin-6-yl]ethynyl)-1-[(3S,5R)-5-(methoxymethyl)-1-(prop-2-enoyl)pyrrolidin-3-yl]-5-(methylamino)pyrazole-4-carboxamide] | 100 to 1000 nM | 
12 | C=CC(=O)N1C[C@@H](n2nc(C#Cc3ccc4c(nc(C5CC5)n4C)c3F)c(C(N)=O)c2NC)C[C@@H]1COC [Example 51, 1-((3S,5R)-1-Acryloyl-5-(methoxymethyl)pyrrolidin-3-yl)-3-((2-cyclopropyl-4-fluoro-1-methyl-1H-benzo[d]imidazol-5-yl)ethynyl)-5-(methylamino)-1H-pyrazole-4-carboxamide] | ≤ 100 nM | 
13 | C=CC(=O)N1C[C@@H](n2nc(C#Cc3ccn4nccc4n3)c(C(N)=O)c2NC)C[C@@H]1COC [Example 53, 1-[(3S,5R)-5-(Methoxymethyl)-1-(prop-2-enoyl)pyrrolidin-3-yl]-5-(methylamino)-3-(2-[pyrazolo[1,5-a]pyrimidin-5-yl]ethynyl)pyrazole-4-carboxamide] | 100 to 1000 nM | 
14 | C=CC(=O)N1C[C@@H](n2nc(C#Cc3ccn4ccnc4c3)c(C(N)=O)c2NC)C[C@@H]1COC [Example 54, 1-((3S,5R)-1-Acryloyl-5-(methoxymethyl)pyrrolidin-3-yl)-3-(imidazo[1,2-a]pyridin-7-ylethynyl)-5-(methylamino)-1H-pyrazole-4-carboxamide] | ≤ 100 nM | 
15 | C=CC(=O)N1C[C@@H](n2nc(C#Cc3ccc4nccn4c3)c(C(N)=O)c2NC)C[C@@H]1COC [Example 55, 1-((3S,5R)-1-Acryloyl-5-(methoxymethyl)pyrrolidin-3-yl)-3-(imidazo[1,2-a]pyridin-6-ylethynyl)-5-(methylamino)-1H-pyrazole-4-carboxamide] |  | > 500 nM
16 | C=CC(=O)N1C[C@@H](n2nc(C#Cc3ccn4nccc4c3)c(C(N)=O)c2NC)C[C@@H]1COC [Example 56, 1-[(3S,5R)-5-(Methoxymethyl)-1-(prop-2-enoyl)pyrrolidin-3-yl]-5-(methylamino)-3-(2-[pyrazolo[1,5-a]pyridin-5-yl]ethynyl)pyrazole-4-carboxamide] | ≤ 100 nM | 

The remaining lines, values ahead:

Row | IC50 (class symbols) | IC50 (given as numeric bound) | SMILES
17 | ≤ 100 nM |  | C=CC(=O)N1C[C@@H](n2nc(C#Cc3ccc4c(c3)nc(C(F)(F)F)n4CC)c(C(N)=O)c2NC)C[C@@H]1COC [Example 27, 1-((3S,5R)-1-acryloyl-5-(methoxymethyl)pyrrolidin-3-yl)-3-((1-ethyl-2-(trifluoromethyl)-1H-benzo[d]imidazol-5-yl)ethynyl)-5-(methylamino)-1H-pyrazole-4-carboxamide]
18 | ≤ 100 nM |  | C=CC(=O)N1C[C@@H](n2nc(C#Cc3cc4nc(C)n(C)c4cc3F)c(C(N)=O)c2NC)C[C@@H]1COC [Example 28, 1-((3S,5R)-1-acryloyl-5-(methoxymethyl)pyrrolidin-3-yl)-3-((6-fluoro-1,2-dimethyl-1H-benzo[d]imidazol-5-yl)ethynyl)-5-(methylamino)-1H-pyrazole-4-carboxamide]
19 | ≤ 100 nM |  | C=CC(=O)N1C[C@@H](n2nc(C#Cc3cc4nc(C)n(CC)c4cc3F)c(C(N)=O)c2NC)C[C@@H]1COC [Example 37, 3-[2-(1-ethyl-6-fluoro-2-methyl-1,3-benzodiazol-5-yl)ethynyl]-1-[(3S,5R)-5-(methoxymethyl)-1-(Prop-2-enoyl)pyrrolidin-3-yl]-5-(methylamino)pyrazole-4-carboxamide]
20 | ≤ 100 nM |  | C=CC(=O)N1C[C@@H](n2nc(C#Cc3ccc4c(nc(C)n4CC)c3Cl)c(C(N)=O)c2NC)C[C@@H]1COC [Example 38, 3-[2-(4-chloro-1-ethyl-2-methyl-1,3-benzodiazol-5-yl)ethynyl]-1-[(3S,5R)-5-(methoxymethyl)-1-(prop-2-enoyl)pyrrolidin-3-yl]-5-(methylamino)pyrazole-4-carboxamide]
21 | 100 to 1000 nM |  | C=CC(=O)N1C[C@@H](n2nc(C#Cc3ccc4c(n3)nc(C)n4CC)c(C(N)=O)c2NC)C[C@@H]1COC [Example 39, 3-(2-[1-ethyl-2-methylimidazo[4,5-b]pyridin-5-yl]ethynyl)-1-[(3S,5R)-5-(methoxymethyl)-1-(prop-2-enoyl)pyrrolidin-3-yl]-5-(methylamino)pyrazole-4-carboxamide]
22 | ≤ 100 nM |  | C=CC(=O)N1C[C@@H](n2nc(C#Cc3ccc4[nH]c(C5CC5)nc4c3)c(C(N)=O)c2NC)C[C@@H]1COC [Example 42, 3-[2-(2-cyclopropyl-1H-1,3-benzodiazol-5-yl)ethynyl]-1-[(3S,5R)-5-(methoxymethyl)-1-(prop-2-enoyl)pyrrolidin-3-yl]-5-(methylamino)pyrazole-4-carboxamide]
23 | ≤ 100 nM |  | C=CC(=O)N1C[C@@H](n2nc(C#Cc3ccc4c(C)noc4c3)c(C(N)=O)c2NC)C[C@@H]1COC [Example 44, 1-[(3S,5R)-5-(methoxymethyl)-1-(prop-2-enoyl)pyrrolidin-3-yl]-3-[2-(3-methyl-1,2-benzoxazol-6-yl)ethynyl]-5-(methylamino)pyrazole-4-carboxamide]
24 | ≤ 100 nM |  | C=CC(=O)N1C[C@@H](n2nc(C#Cc3c(F)cc4c(nc(C5CC5)n4CC)c3F)c(C(N)=O)c2NC)C[C@@H]1COC [Example 45, 3-[2-(2-cyclopropyl-1-ethyl-4,6-difluoro-1,3-benzodiazol-5-yl)ethynyl]-1-[(3S,5R)-5-(methoxymethyl)-1-(prop-2-enoyl)pyrrolidin-3-yl]-5-(methylamino) pyrazole-4-carboxamide]
25 | ≤ 100 nM |  | C=CC(=O)N1C[C@@H](n2nc(C#Cc3c(F)cc4c(nc(C5CC5)n4C)c3F)c(C(N)=O)c2NC)C[C@@H]1COC [Example 50, 3-[2-(2-Cyclopropyl-4,6-difluoro-1-methyl-1,3-benzodiazol-5-yl)ethynyl]-1-[(3S,5R)-5-(methoxymethyl)-1-(prop-2-enoyl)pyrrolidin-3-yl]-5-(methylamino)pyrazole-4-carboxamide]
26 | ≤ 100 nM |  | C=CC(=O)N1C[C@@H](n2nc(C#Cc3ccc4cccnc4c3)c(C(N)=O)c2NC)C[C@@H]1COC [Example 52, 1-[(3S,5R)-5-(Methoxymethyl)-1-(prop-2-enoyl)pyrrolidin-3-yl]-5-(methylamino)-3-[2-(quinolin-7-yl)ethynyl]pyrazole-4-carboxamide]
